Publication PMC10788925 (Journal of Medicinal Chemistry, 2023)
Like-named read-outs stand apart in the source and are kept apart here.

Experiments:
[1] = test system: Huh-7 cells; settings: human
[2] = test system: Vero E6 cells; settings: African green monkey (Chlorocebus sp.)
[3] = test system: SARS-CoV-2; test: microbe, parasite or virus in culture; type: cell-based
[4] = test system: CHIKV LR2006-OPY1; test: microbe, parasite or virus in culture; type: cell-based; settings: Chikungunya virus
[5] = in vitro; settings: human
[6] = in vitro; settings: human; remark: listed apart in the source
[7] = test system: HEV-3 replicon p6-Gluc; test: microbe, parasite or virus in culture; type: cell-based, Hepatitis E virus; settings: for EC50 / EC90: Hepatitis E virus
[8] = in vitro
[9] = test system: RVFV strain MP-12; test: microbe, parasite or virus in culture; type: cell-based; settings: Rift Valley fever virus
[10] = test system: HepG2 cells
[11] = Severe acute respiratory syndrome coronavirus 2, Vero C1008, 24 h
[12] = Severe acute respiratory syndrome coronavirus 2, Vero C1008, 48 h
[13] = African green monkey (Chlorocebus sp.)

Compound | CC50 [1] [nM] | EC50 [3, 11] [nM] | EC90 [3, 11] [nM] | EC50 [3, 12] [nM] | EC90 [3, 12] [nM] | EC50 ([4]; Huh-7, 24 h) [nM] | EC90 ([4]; Huh-7, 24 h) [nM] | EC50 ([4]; Huh-7, 48 h) [nM] | EC90 ([4]; Huh-7, 48 h) [nM] | CC50 [5] [nM] | CC50 at 24 h [6] [nM] | CC50 at 48 h [6] [nM] | EC50 ([7]; HepG2, 24 h) [nM] | EC90 ([7]; HepG2, 24 h) [nM] | EC50 ([7]; HepG2, 48 h) [nM] | EC90 ([7]; HepG2, 48 h) [nM] | CC50 [8, 13] [nM] | CC50 ([8]; chlorocebus sabaeus, CC50) [nM] | EC50 ([9]; Vero C1008, 24 h) [nM] | EC90 ([9]; Vero C1008, 24 h) [nM] | other results
COC(=O)[C@H]1[C@@H](O)[C@@]2(O)c3c(Cl)cc(Cl)cc3O[C@@]2(c2ccc(OC)cc2)[C@@H]1c1ccccc1 (racemic) [9da, (±)-Methyl (1R,2R,3S,3aR,8bS)-6,8-dichloro-1,8b-dihydroxy-3a-(4-methoxyphenyl)-3-phenyl-2,3,3a,8b-tetrahydro-1H-cyclopenta[b]benzofuran-2-carboxylate] | > 1000 | 111 | 387 | 176 | 558 | 18.1 | 83.4 | 22.4 | 92.3 | > 1000 | 798 | 149 | 25.4 | 642 | 17.5 | 725 | > 1000 | > 1000 | 102 | 227 | CC50 [2]: > 1000 nM; EC50 ([9]; Vero C1008, 48 h): 143 nM; EC90 ([9]; Vero C1008, 48 h): 217 nM
CONC(=O)[C@H]1[C@@H](O)[C@@]2(O)c3c(Cl)cc(Br)cc3O[C@@]2(c2ccc(OC)cc2)[C@@H]1c1ccccc1 (racemic) [14f, (±)-(1R,2R,3S,3aR,8bS)-6-Bromo-8-chloro-1,8b-dihydroxy-N-methoxy-3a-(4-methoxyphenyl)-3-phenyl-2,3,3a,8b-tetrahydro-1H-cyclopenta[b]benzofuran-2-carboxamide] | > 1000 | 51.4 | 920 | 190 | 340 | 3.1 | 19 | 3.4 | 20.2 | > 1000 | 407 | 15.6 | 4.6 | 53.4 | 2.6 | 30.2 | > 1000 | > 1000 | 42.1 | 92.5 | EC50 ([9]; Vero C1008, 48 h): 106 nM; EC90 ([9]; Vero C1008, 48 h): 113 nM
COC(=O)[C@H]1[C@@H](O)[C@@]2(O)c3c(F)cc(F)cc3O[C@@]2(c2ccc(OC)cc2)[C@@H]1c1ccccc1 (racemic) [9c, (±)-Methyl (1R,2R,3S,3aR,8bS)-6,8-difluoro-1,8b-dihydroxy-3a-(4-methoxyphenyl)-3-phenyl-2,3,3a,8b-tetrahydro-1H-cyclopenta[b]benzofuran-2-carboxylate] | – | – | – | – | – | – | – | – | – | – | – | – | > 1000 | > 1000 | > 1000 | > 1000 | – | – | – | – | CC50 ([10]; read-out: HEP2G, CC50 (24 h), 24 h): > 1000 nM; CC50 ([10]; read-out: HEP2G, CC50 (48 h), 48 h): > 1000 nM; CC50 [6]: > 1000 nM; EC50 ([7]; HepG2, 24 h, read-out: HEV, EC50 (24 h, nM)): > 1000 nM; EC90 ([7]; HepG2, 24 h, read-out: HEV, EC90 (24 h, nM)): > 1000 nM; EC50 ([7]; HepG2, 48 h, read-out: HEV, EC50 (48 h, nM)): > 1000 nM; EC90 ([7]; HepG2, 48 h, read-out: HEV, EC90 (48 h, nM)2): > 1000 nM
COCOc1cc(F)c2c(c1)O[C@@]1(c3ccc(OC)cc3)[C@H](c3ccccc3)[C@@H](C(=O)OC)[C@@H](O)[C@@]21O (racemic) [9na, (±)-Methyl (1R,2R,3S,3aR,8bS)-8-fluoro-1,8b-dihydroxy-6-(methoxymethoxy)-3a-(4-methoxyphenyl)-3-phenyl-2,3,3a,8b-tetrahydro-1H-cyclopenta[b]benzofuran-2-carboxylate] | – | – | – | – | – | – | – | – | – | – | 912 | 236 | 202 | > 1000 | 146 | 873 | – | – | – | – | –
COC(=O)[C@H]1[C@@H](O)[C@@]2(O)c3c(Br)cc(OC)cc3O[C@@]2(c2ccc(OC)cc2)[C@@H]1c1ccccc1 (racemic) [9l, (±)-Methyl (1R,2R,3S,3aR,8bS)-8-bromo-1,8b-dihydroxy-6-methoxy-3a-(4-methoxyphenyl)-3-phenyl-2,3,3a,8b-tetrahydro-1H-cyclopenta[b]benzofuran-2-carboxylate] | – | – | – | – | – | – | – | – | – | – | 787 | 114 | 83.6 | 343 | 44.7 | 305 | – | – | – | – | –
COC(=O)[C@H]1[C@@H](O)[C@@]2(O)c3c(OC)cc(OC)cc3O[C@@]2(c2ccc(Br)cc2)[C@@H]1c1ccccc1 (racemic) [11bb, (±)-Methyl (1R,2R,3S,3aR,8bS)-3a-(4-bromophenyl)-1,8b-dihydroxy-6,8-dimethoxy-3-phenyl-2,3,3a,8b-tetrahydro-1H-cyclopenta[b]benzofuran-2-carboxylate] | – | – | – | – | – | – | – | – | – | – | 420 | 27.1 | 7.3 | 158 | 9.4 | 91.3 | – | – | – | – | –
COC(=O)[C@H]1[C@@H](O)[C@@]2(O)c3c(OC)cc(Br)cc3O[C@@]2(c2ccc(OC)cc2)[C@@H]1c1ccccc1 (racemic) [9m, (±)-Methyl (1R,2R,3S,3aR,8bS)-6-bromo-1,8b-dihydroxy-8-methoxy-3a-(4-methoxyphenyl)-3-phenyl-2,3,3a,8b-tetrahydro-1H-cyclopenta[b]benzofuran-2-carboxylate] | > 1000 | 33.9 | 40.4 | 47.8 | 80 | 2.1 | 12.3 | 2.9 | 9.8 | > 1000 | 421 | 13.8 | 3.1 | 40.7 | 1.4 | 30.6 | > 1000 | > 1000 | 26.6 | 39.4 | CC50 [2]: > 1000 nM; cell viability at higher cell density [10]: improved; antiviral response at higher cell density [7]: decreased; EC50 ([9]; Vero C1008, 48 h): 43.3 nM; EC90 ([9]; Vero C1008, 48 h): 53.2 nM
CONC(=O)[C@H]1[C@@H](O)[C@@]2(O)c3c(OC)cc(Br)cc3O[C@@]2(c2ccc(OC)cc2)[C@@H]1c1ccccc1 (racemic) [14m, (±)-(1R,2R,3S,3aR,8bS)-6-Bromo-1,8b-dihydroxy-N,8-dimethoxy-3a-(4-methoxyphenyl)-3-phenyl-2,3,3a,8b-tetrahydro-1H-cyclopenta[b]benzofuran-2-carboxamide] | – | – | – | – | – | – | – | – | – | – | 748 | 1 | 1 | 328 | 0.2 | 1.6 | – | – | – | – | –
COC(=O)[C@H]1[C@@H](O)[C@@]2(O)c3c(Cl)cc(OC)cc3O[C@@]2(c2ccc(OC)cc2)[C@@H]1c1ccccc1 (racemic) [9j, (±)-Methyl (1R,2R,3S,3aR,8bS)-8-chloro-1,8b-dihydroxy-6-methoxy-3a-(4-methoxyphenyl)-3-phenyl-2,3,3a,8b-tetrahydro-1H-cyclopenta[b]benzofuran-2-carboxylate] | – | – | – | – | – | – | – | – | – | – | 832 | 148 | 92.6 | 577 | 75.7 | 394 | – | – | – | – | –
COC(=O)[C@H]1[C@@H](O)[C@@]2(O)c3c(OC)cc(OC)cc3O[C@@]2(c2ccc(Cl)cc2)[C@@H]1c1ccccc1 (racemic) [9a, (±)-Methyl (1R,2R,3S,3aR,8bS)-3a-(4-chlorophenyl)-1,8b-dihydroxy-6,8-dimethoxy-3-phenyl-2,3,3a,8b-tetrahydro-1H-cyclopenta[b]benzofuran-2-carboxylate] | – | – | – | – | – | – | – | – | – | – | 513 | 38.8 | 19.4 | 140 | 16.8 | 105 | – | – | – | – | –
